Source: patent publication US10202368B2, “CXCR7 receptor modulators” (IDORSIA PHARMACEUTICALS LTD, priority 2014, dated 2019)

target: CXCR7 (Homo sapiens (Human), UniProt P25106); test: PathHunter CHO-K1 CXCR7 β-arrestin assay (agonistic activity); assay type: cell-based; details: β-arrestin recruitment in PathHunter CHO-K1 CXCR7 β-arrestin cells, 90 minutes at 37° C., geometric mean values
Experimental: The CXCI12 receptor and CXCR7 agonistic activities of the compounds of formula (I) are determined in accordance with the following experimental method.
The assay is using the PathHunter™ CHO-K1 CXCR7 β-arrestin cell line from DiscoverX. The system is based on the Enzyme Fragment Complementation Technology. Two complementing fragments of the β-galactosidase enzyme are expressed within stably transfected cells. The larger portion of β-gal, termed EA for Enzyme Acceptor, is fused to the C-terminus of b-arrestin 2. The smaller fragment, termed ProLink™ tag, is fused to CXCR7 at the C-terminus. Upon activation, b-arrestin is recruited which forces the interaction of ProLink and EA, allowing complementation of the two fragments of b-gal and the formation of a functional enzyme which is capable of hydrolysing the substrate and generating a chemiluminescent signal.
CHO-K1 CXCR7 β-arrestin cells are detached from culture dishes with a cell dissociation buffer (Invitrogen, #13151-014) and collected in growing medium (F12 HAMS 90% (v/v)/FCS 10% (v/v), Penicillin/streptomycin 1% (v/v)). 5000 cells per well (in 20 μl) are seeded in a 384 well plate (white-walled, clear bottom; BD Falcon #353274). The plate is incubated at 37° C./5% CO2 for 24 hours. Medium is then replaced by 20 μl OPTIMEM (Invitrogen #31985) for 3 to 4 hours. Test compounds are dissolved at 10 mM in DMSO and serially diluted in DMSO to 200× of the final concentration for dose response curves. Compounds are then diluted 1:33.3 in HBSS1X. 5 μl/well of HBSS1X/20 mM HEPES/0.2% BSA are added to the assay plate followed by addition of 5 μl/well of diluted compounds. CXCL12 (Peprotech #300-28A) may be used as a reference agonist. The plate is incubated for 90 minutes at 37° C. 12 μl of detection reagent (Path Hunter Detection Kit, DiscoveRx, #93-0001) is transferred to the assay plate and to the plate is incubated for 1 hour at room temperature. Luminescent signal is read in a microplate reader (FLUOstar Optima, bmg). The calculated EC50 values may fluctuate depending on the daily cellular assay performance. Fluctuations of this kind are known to those skilled in the art. Average EC50 values from several measurements are given as geometric mean values.

Sequence of CXCR7 (P25106 whole entry): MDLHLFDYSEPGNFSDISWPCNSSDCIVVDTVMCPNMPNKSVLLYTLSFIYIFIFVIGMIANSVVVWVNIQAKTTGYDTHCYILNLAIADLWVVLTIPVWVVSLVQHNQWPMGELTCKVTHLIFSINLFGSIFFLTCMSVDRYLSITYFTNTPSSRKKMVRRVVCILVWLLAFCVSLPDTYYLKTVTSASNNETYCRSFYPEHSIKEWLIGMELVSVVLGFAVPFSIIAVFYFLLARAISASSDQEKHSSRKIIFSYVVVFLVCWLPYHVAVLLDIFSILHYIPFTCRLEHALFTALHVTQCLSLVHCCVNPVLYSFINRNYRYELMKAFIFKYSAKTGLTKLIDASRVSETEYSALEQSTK
Sequence of CXCR7 (P32121 whole entry partner): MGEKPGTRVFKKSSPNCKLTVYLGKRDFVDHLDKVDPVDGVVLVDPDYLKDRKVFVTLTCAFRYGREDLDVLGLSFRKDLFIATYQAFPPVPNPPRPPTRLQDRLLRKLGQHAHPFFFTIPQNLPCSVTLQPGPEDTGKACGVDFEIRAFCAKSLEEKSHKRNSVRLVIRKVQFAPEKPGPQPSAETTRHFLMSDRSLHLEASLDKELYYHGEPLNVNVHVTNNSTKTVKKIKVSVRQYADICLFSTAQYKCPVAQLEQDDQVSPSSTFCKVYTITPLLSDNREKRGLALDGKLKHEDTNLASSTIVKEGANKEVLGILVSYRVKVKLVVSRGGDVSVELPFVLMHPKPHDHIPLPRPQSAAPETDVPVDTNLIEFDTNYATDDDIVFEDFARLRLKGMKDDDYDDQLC

Compound	EC50 [nM]
2-(4-Cyclopropylmethyl-1-methyl-2,3,4,5-tetrahydro-1H-benzo[e][1,4]diazepin-9-ylamino)-N-(2-morpholin-4-yl-ethyl)-N-(3-trifluoromethyl-pyridin-2-ylmethyl)-acetamide [Example 55]	10
CC(C)CN1CCOc2c(cccc2NCC(=O)N(CCN(C)C)Cc2ccccc2C(F)(F)F)C1 [Example 1, N-(2-Dimethylamino-ethyl)-2-(4-isobutyl-2,3,4,5-tetrahydro-benzo[f][1,4]oxazepin-9-ylamino)-N-(2-trifluoromethyl-benzyl)-acetamide]	8
CC(C)CN1CCOc2c(cccc2NCC(=O)N(CCN(C)C)Cc2ncccc2C(F)(F)F)C1 [Example 2, N-(2-Dimethylamino-ethyl)-2-(4-isobutyl-2,3,4,5-tetrahydro-benzo[f][1,4]oxazepin-9-ylamino)-N-(3-trifluoromethyl-pyridin-2-ylmethyl)-acetamide]	3
CC(C)CN1CCOc2c(cccc2NCC(=O)N(CCN(C)C)Cc2ncccc2Cl)C1 [Example 3, N-(3-Chloro-pyridin-2-ylmethyl)-N-(2-dimethylamino-ethyl)-2-(4-isobutyl-2,3,4,5-tetrahydro-benzo[f][1,4]oxazepin-9-ylamino)-acetamide]	9
CCN1CCOc2c(cccc2NCC(=O)N(CCN(C)C)Cc2ncccc2Cl)C1 [Example 4, N-(3-Chloro-pyridin-2-ylmethyl)-N-(2-dimethylamino-ethyl)-2-(4-ethyl-2,3,4,5-tetrahydro-benzo[f][1,4]oxazepin-9-ylamino)-acetamide]	24
CCN1CCOc2c(cccc2NCC(=O)N(CCN(C)C)Cc2ccccc2C(F)(F)F)C1 [Example 5, N-(2-Dimethylamino-ethyl)-2-(4-ethyl-2,3,4,5-tetrahydro-benzo[f][1,4]oxazepin-9-ylamino)-N-(2-trifluoromethyl-benzyl)-acetamide]	7
CCCN1CCOc2c(cccc2NCC(=O)N(CCN(C)C)Cc2ncccc2Cl)C1 [Example 6, N-(3-Chloro-pyridin-2-ylmethyl)-N-(2-dimethylamino-ethyl)-2-(4-propyl-2,3,4,5-tetrahydro-benzo[f][1,4]oxazepin-9-ylamino)-acetamide]	19
CCCN1CCOc2c(cccc2NCC(=O)N(CCN(C)C)Cc2ccccc2C(F)(F)F)C1 [Example 7, N-(2-Dimethylamino-ethyl)-2-(4-propyl-2,3,4,5-tetrahydro-benzo[f][1,4]oxazepin-9-ylamino)-N-(2-trifluoromethyl-benzyl)-acetamide]	4
CC(C)CN1CCOc2c(cccc2NCC(=O)N(CCN(C)C)Cc2cccc(Br)c2)C1 [Example 8, N-(3-Bromo-benzyl)-N-(2-dimethylamino-ethyl)-2-(4-isobutyl-2,3,4,5-tetrahydro-benzo[f][1,4]oxazepin-9-ylamino)-acetamide]	36
COc1ccnc(CN(CCN(C)C)C(=O)CNc2cccc3c2OCCN(CC(C)C)C3)c1 [Example 9, N-(2-Dimethylamino-ethyl)-2-(4-isobutyl-2,3,4,5-tetrahydro-benzo[f][1,4]oxazepin-9-ylamino)-N-(4-methoxy-pyridin-2-ylmethyl)-acetamide]	200
CC(C)CN1CCOc2c(cccc2NCC(=O)N(CCN(C)C2CC2)Cc2ccccc2C(F)(F)F)C1 [Example 10, N-[2-(Cyclopropyl-methyl-amino)-ethyl]-2-(4-isobutyl-2,3,4,5-tetrahydro-benzo[f][1,4]oxazepin-9-ylamino)-N-(2-trifluoromethyl-benzyl)-acetamide]	58
CC(C)CN1CCOc2c(cccc2NCC(=O)N(CCN2CCCC2=O)Cc2ccccc2C(F)(F)F)C1 [Example 11, 2-(4-Isobutyl-2,3,4,5-tetrahydro-benzo[f][1,4]oxazepin-9-ylamino)-N-[2-(2-oxo-pyrrolidin-1-yl)-ethyl]-N-(2-trifluoromethyl-benzyl)-acetamide]	190
CC(C)CN1CCOc2c(cccc2NCC(=O)N(CCN2CCCC2)Cc2ccc(F)cc2F)C1 [Example 12, N-(2,4-Difluoro-benzyl)-2-(4-isobutyl-2,3,4,5-tetrahydro-benzo[f][1,4]oxazepin-9-ylamino)-N-(2-pyrrolidin-1-yl-ethyl)-acetamide]	14
CC(C)CN1CCOc2c(cccc2NCC(=O)N(CCN2CCC(F)(F)CC2)Cc2ncccc2Cl)C1 [Example 13, N-(3-Chloro-pyridin-2-ylmethyl)-N-[2-(4,4-difluoro-piperidin-1-yl)-ethyl]-2-(4-isobutyl-2,3,4,5-tetrahydro-benzo[f][1,4]oxazepin-9-ylamino)-acetamide]	88
Cc1ccnc(CN(CCN(C)C)C(=O)CNc2cccc3c2OCCN(CC(C)C)C3)c1 [Example 14, N-(2-Dimethylamino-ethyl)-2-(4-isobutyl-2,3,4,5-tetrahydro-benzo[f][1,4]oxazepin-9-ylamino)-N-(4-methyl-pyridin-2-ylmethyl)-acetamide]	76
CC(C)CN1CCOc2c(cccc2NCC(=O)N(CCN2CCCC2)Cc2ccccc2Cl)C1 [Example 15, N-(2-Chloro-benzyl)-2-(4-isobutyl-2,3,4,5-tetrahydro-benzo[f][1,4]oxazepin-9-ylamino)-N-(2-pyrrolidin-1-yl-ethyl)-acetamide]	11
CC(C)CN1CCOc2c(cccc2NCC(=O)N(CCN2CCOCC2)Cc2ccccc2C(F)(F)F)C1 [Example 16, 2-(4-Isobutyl-2,3,4,5-tetrahydro-benzo[f][1,4]oxazepin-9-ylamino)-N-(2-morpholin-4-yl-ethyl)-N-(2-trifluoromethyl-benzyl)-acetamide]	74
CC(C)CN1CCOc2c(cccc2NCC(=O)N(CCN(C)C)Cc2ccc(F)cc2C(F)(F)F)C1 [Example 17, N-(2-Dimethylamino-ethyl)-N-(4-fluoro-2-trifluoromethyl-benzyl)-2-(4-isobutyl-2,3,4,5-tetrahydro-benzo[f][1,4]oxazepin-9-ylamino)-acetamide]	59
CC(C)CN1CCOc2c(cccc2NCC(=O)N(CCN(C)C)Cc2cccc(C(F)(F)F)c2)C1 [Example 18, N-(2-Dimethylamino-ethyl)-2-(4-isobutyl-2,3,4,5-tetrahydro-benzo[f][1,4]oxazepin-9-ylamino)-N-(3-trifluoromethyl-benzyl)-acetamide]	53
CC(C)CN1CCOc2c(cccc2NCC(=O)N(CCN(C)C)Cc2c(F)cccc2F)C1 [Example 19, N-(2,6-Difluoro-benzyl)-N-(2-dimethylamino-ethyl)-2-(4-isobutyl-2,3,4,5-tetrahydro-benzo[f][1,4]oxazepin-9-ylamino)-acetamide]	12
CC(=O)N1CCOc2c(cccc2NCC(=O)N(CCN(C)C)Cc2ccccc2C(F)(F)F)C1 [Example 20, 2-(4-Acetyl-2,3,4,5-tetrahydro-benzo[f][1,4]oxazepin-9-ylamino)-N-(2-dimethylamino-ethyl)-N-(2-trifluoromethyl-benzyl)-acetamide]	73
CCN1CCNc2c(cccc2NCC(=O)N(CCN(C)C)Cc2ccccc2C(F)(F)F)C1 [Example 21, N-(2-(dimethylamino)ethyl)-2-((4-ethyl-2,3,4,5-tetrahydro-1H-benzo[e][1,4]diazepin-9-yl)amino)-N-(2-(trifluoromethyl)benzyl)acetamide]	6
CN(C)CCN(Cc1ccccc1C(F)(F)F)C(=O)CNc1cccc2c1CN(CC1CC1)CCO2 [Example 22, 2-(4-Cyclopropylmethyl-2,3,4,5-tetrahydro-benzo[f][1,4]oxazepin-6-ylamino)-N-(2-dimethylamino-ethyl)-N-(2-trifluoromethyl-benzyl)-acetamide]	4
CN(C)CCN(Cc1ccccc1C(F)(F)F)C(=O)COc1cccc2c1CCN(CC1CC1)CC2 [Example 23, 2-(3-Cyclopropylmethyl-2,3,4,5-tetrahydro-1H-benzo[d]azepin-6-yloxy)-N-(2-dimethylamino-ethyl)-N-(2-trifluoromethyl-benzyl)-acetamide]	1
COCC(=O)N1CCc2cccc(OCC(=O)N(CCN(C)C)Cc3ccccc3C(F)(F)F)c2CC1 [Example 24, N-(2-Dimethylamino-ethyl)-2-[3-(2-methoxy-acetyl)-2,3,4,5-tetrahydro-1H-benzo[d]azepin-6-yloxy]-N-(2-trifluoromethyl-benzyl)-acetamide]	3
CC(=O)N1CCc2cccc(OCC(=O)N(CCN(C)C)Cc3ccccc3C(F)(F)F)c2CC1 [Example 25, 2-(3-Acetyl-2,3,4,5-tetrahydro-1H-benzo[d]azepin-6-yloxy)-N-(2-dimethylamino-ethyl)-N-(2-trifluoromethyl-benzyl)-acetamide]	3
